Measured values as given in paper PMC12264554, “Application of preclinical absorption, distribution, metabolism, elimination in vitro techniques for the characterization and compound library optimization of novel antibiotic gallium salophen” (Drug Metabolism and Disposition, 2025).

Columns and labels:
S9 clearance assay = assay type: in vitro ADME; conditions: average ± SEM n = 3; for CLint scaled: S9 rat liver fraction, 2 μM, read-out: Predicted CLint (converted); for half-life at 2 µM: pH 7.4, S9 rat liver fraction
Method: Select library compounds were tested in triplicate at a concentration of 2 μM and incubated in 0.1 M potassium phosphate buffer containing 12 mM MgCl2 and 8 mM NADPH at pH 7.4 with 2.5 mg/mL of Sprague–Dawley S9 (Invitrogen). Incubations contained a final concentration of 2.5 mM UDP glucuronic acid, 0.10 mM adenosine 3’-phosphate 5’-phosphosulfate, 0.5 mM acetyl CoA, and 50 μg/mg protein alamethicin. All co-factors were from Sigma. Samples were incubated for 0, 3, 7, 12, 20, and 30 minutes. At the designated time point, the incubation reaction was stopped by adding 100 μL of ACN containing 1 μM of either GaSal-4 or GaSal-5 as the internal standard. […] A hundred microliter of supernatant was taken for LC-MS/MS analysis. 7-Ethoxycoumarin (Sigma) was used as a positive control in this experiment. Clearance was calculated according to eq. 3:(3) CLint=0.693/InVitroT1/2∗IncubationVolume/mgofS9∗165mgS9/gramofliver∗45gramsliver/kgofbodyweight
The average CLint ± SEM was determined for each compound for 3 replicates per time point.

[1] = RBC/PL partitioning equilibrium in whole blood; conditions: for ICP-MS calculated KRBC/PL / LC-MS/MS calculated KRBC/PL: sodium heparin whole blood, 6 selectivity lots; for KRBC/PL: K2EDTA whole blood
Method: The mixtures were digested at 80 °C for 4 hours and further diluted to a concentration of 6% nitric acid. Gallium (Ga^71) in whole blood, PL, and RBC samples were quantified using an Agilent 7700x ICP-MS instrument (Agilent Technologies). Metal levels were detected using an Octopole Reaction System in He mode. Other ICP-MS parameters include an radio frequency power of 1500 W, on octupole radio frequency of 190 V, an octapole bias of –18 V, a helium gas flow of 4.3 mL/min, and an argon flow of 0.99 L/min. Samples were loaded through a 7700X peristaltic (with a speed of 0.1 rps) and a MicroMist nebulizer. A standard calibration curve was used to derive metal concentrations. The calibration standards from 0–250 ppb were prepared in 6% nitric acid using atomic absorption standards (Sigma). Data analysis and extraction were performed using Agilent’s MassHunter software version 5.1, specifically version D.01.01.
All LC-MS/MS grade solvents were purchased from ThermoFisher. Ammonium bicarbonate was purchased from Sigma Aldrich. Analysis was performed on a Waters I-Class ultra-performance liquid chromatography system connected with a Waters Xevo TQ-XS mass spectrometer. Ten millimolar ammonium bicarbonate, pH 9.4 was used for mobile phase A, and 100% methanol was used for mobile phase B. The column flow rate was set at 0.400 mL/min. Chromatographic separation was performed with a BEH C18 (2.1 × 50 mm, 1.7 μm) column (Waters). […] The total run time was 4 minutes. The column temperature was set to 60 °C, and the autosampler temperature was set to 15 °C. Washing parameters were 800 μL of weak needle wash (acetonitrile [ACN]:Water/50:50) and 1000 μL of strong needle wash (methanol:ACN:2-propanol:formic acid/30:30:40:0.5) after every injection. Transitions used to monitor all drugs in the study are shown in Supplemental Table 1.
Whole blood (either potassium EDTA [K2EDTA] or sodium heparin) was preincubated at 37 °C for 30 minutes before spiking with the analyte. GaSal-5 was made at a stock concentration of 100 μg/mL in water and then spiked at a high concentration (1 μg/mL) and low concentration (100 ng/mL) to determine whether equilibrium was concentration dependent. Samples were then aliquoted and stored in a water bath at 37 °C for 1, 2, 3, 4, and 8 hours or harvested immediately. PL was harvested from samples by centrifuging at 3000 rpm at 4 °C for 10 minutes. PL was transferred to a new tube and considered the PL fraction, whereas the rest of the matrix was considered the RBC fraction. Samples were then either analyzed by LC-MS/MS or ICP-MS. […] For selectivity lot analysis, whole blood from 3 male and 3 female donors were incubated for 2 hours and then analyzed with LC-MS/MS and ICP-MS at a single concentration of 1 μg/mL. Data are presented as average ± SEM, n = 3 per sample, per concentration. Significance was determined by using a paired t test for ICP-MS and LC-MS/MS data (the same sample, different method) or a 2-tailed Student’s t test for different anticoagulants.

CYP = test: 7-Ethoxycoumarin metabolism in microsomes in the presence of GaSal analogs (possible CYP inhibition); assay type: in vitro ADME, rat; conditions: co-incubation with 7-ethoxycoumarin
[2] = Microsomal clearance assay; assay type: in vitro ADME, rat
Method: Library compounds were tested in triplicate at a concentration of 2 μM and incubated in 0.1 M potassium phosphate buffer containing 12 mM MgCl2 and 8 mM NADPH at pH 7.4 with either 0.5 mg/mL of Sprague–Dawley liver microsomes (Invitrogen). Samples were incubated for 0, 3, 7, 12, 20, and 30 minutes. At the designated time point, the incubation reaction was stopped by adding 100 μL of ACN containing 1 μM of either GaSal-4 or GaSal-5 as the internal standards. […] 7-Ethoxycoumarin (Sigma) was used as a positive control in this experiment. Intrinsic clearance (CLint) was calculated using eq. 2:(2) CLint=0.693/InVitroT1/2∗IncubationVolume/mgofmicrosomes∗45mgmicrosomes/gramofliver∗45gramsliver/kgofbodyweight
The average CLint ± SEM was determined for each compound for 2 replicates per time point.

[3] = 0.1 μg/mL, pooled K2EDTA whole blood, 2 hours, LC-MS/MS (ICP-MS for Ga^3+)
[4] = 0.1 μg/mL, pooled sodium heparin whole blood, 2 hours, LC-MS/MS (ICP-MS for Ga^3+)
[5] = 1 μg/mL, pooled sodium heparin whole blood, 2 hours, LC-MS/MS (ICP-MS for Ga^3+)
[6] = 1 μg/mL, selectivity lots n = 6, LC-MS/MS
[7] = 1 μg/mL, selectivity lots n = 6, LC-MS/MS (also in Table 4)
[8] = 1 μg/mL, pooled K2EDTA whole blood, 2 hours, LC-MS/MS (ICP-MS for Ga^3+)

SMILES	CLint scaled (S9 clearance assay) [mL/min/kg]	half-life at 2 µM (S9 clearance assay) [h]	K2EDTA KRBC/PL [1, 3]	Heparin KRBC/PL [1, 4]	Heparin KRBC/PL [1, 5]	K2EDTA KRBC/PL [1, 6]	Heparin KRBC/PL [1, 7]	ICP-MS calculated KRBC/PL ([1]; 1 μg/mL, 2 hours)	LC-MS/MS calculated KRBC/PL ([1]; 1 μg/mL, 2 hours)	KRBC/PL ([1]; 2 hours, ICP-MS, HQC (1 μg/mL))	KRBC/PL ([1]; 2 hours, ICP-MS, LQC (100 ng/mL))	KRBC/PL ([1]; 2 hours, LC-MS/MS, HQC (1 μg/mL))	KRBC/PL ([1]; 2 hours, LC-MS/MS, LQC (100 ng/mL))	K2EDTA KRBC/PL [1, 8]	7-ethoxycoumarin metabolism when co-incubated (possible CYP inhibition) (CYP)	CLint scaled ([2]; 2 μM, 0.5 mg/mL rat liver microsomes, NADPH, 30 min, read-out: experimental CLint (microsomes)) [mL/min/kg]	decrease in peak area over time ([2]; rat liver microsomes, 30-minute period) [%]
COCCOCCOc1ccc(C=Nc2ccccc2N=Cc2ccc(OCCOCCOC)cc2O)c(O)c1.[Ga+3] [GaSal-5]	27.8	2.88 ± 3.37	0.63 ± 0.36	1.91 ± 0.57	1.34 ± 0.17	0.16 ± 0.03	0.56 ± 0.03	0.36 ± 0.03	0.56 ± 0.03	0.572 ± 0.008	0.632 ± 0.080	0.043 ± 0.017	0.070 ± 0.007				
COCCOc1ccc(/C=N/c2ccccc2/N=C/c2ccc(OCCOC)cc2O)c(O)c1.[Ga+3] [GaSal-13]			0.55 ± 0.35	0.47 ± 0.22	0.59 ± 0.18			0.48 ± 0.04	0.42 ± 0.03					0.08 ± 0.04			
Oc1ccccc1/C=N/c1ccccc1/N=C/c1ccccc1O.[Ga+3] [GaSal, gallium salophen]	136	0.59 ± 0.15	0.22 ± 0.02	0.61 ± 0.42	0.57 ± 0.19	0.58 ± 0.02	0.45 ± 0.03	0.89 ± 0.04	0.45 ± 0.03					0.26 ± 0.03	CYP inhibition	21.3 to 63	
O=C(O)CCOc1ccc(C=Nc2ccccc2N=Cc2ccc(OCCC(=O)O)cc2O)c(O)c1.[Ga+3] [GaSal-4]	398	0.2 ± 0.1	2288 ± 94	3422 ± 435	8098 ± 1102									9220 ± 484			
Oc1cc(OCCN2CCOCC2)ccc1C=Nc1ccccc1N=Cc1ccc(OCCN2CCOCC2)cc1O.[Ga+3] [GaSal-3]	30.2	2.67 ± 1.21	0.28 ± 0.08	1.08 ± 0.28	1.03 ± 0.24									0.28 ± 0.04			< 10
COCCOc1ccc(/C=N/c2ccccc2N=C(C)c2ccccc2O)c(O)c1.[Ga+3] [GaSal-14]			0.69 ± 0.10	0.55 ± 0.07	1.86 ± 0.36	0.08 ± 0.01	0.33 ± 0.04	0.34 ± 0.02	0.33 ± 0.04					1.65 ± 0.18			
